Experimental findings from paper PMC3391414 (Journal of Agricultural and Food Chemistry, 2011) are described below.

Where two headings read alike, the source gives them in different places.

The target of data set [1] is T1, UGT1A7 (Homo sapiens, UniProt Q9HAW7).
T1 sequence (Q9HAW7 26-530): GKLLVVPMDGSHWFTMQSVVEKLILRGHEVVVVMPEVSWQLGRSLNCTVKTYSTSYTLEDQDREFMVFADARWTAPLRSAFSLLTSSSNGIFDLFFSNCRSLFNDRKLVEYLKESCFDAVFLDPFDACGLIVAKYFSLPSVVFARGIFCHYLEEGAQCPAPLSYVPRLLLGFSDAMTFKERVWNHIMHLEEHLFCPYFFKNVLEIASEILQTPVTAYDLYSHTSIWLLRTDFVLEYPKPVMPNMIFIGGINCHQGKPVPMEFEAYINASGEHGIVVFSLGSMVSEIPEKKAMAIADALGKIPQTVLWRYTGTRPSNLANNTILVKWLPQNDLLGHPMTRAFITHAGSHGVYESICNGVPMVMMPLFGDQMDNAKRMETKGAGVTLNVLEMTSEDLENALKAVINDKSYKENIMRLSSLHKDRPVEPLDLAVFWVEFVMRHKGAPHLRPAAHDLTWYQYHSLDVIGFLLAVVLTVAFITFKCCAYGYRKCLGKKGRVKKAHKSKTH
As to the kind of experiment: Glucuronidation by recombinant human UGT1A7. To be noted: UGT1A7, substrate 10 μM.

Data set [2] has as its target T2, UGT1A9 (Homo sapiens, UniProt O60656).
T2 sequence (O60656 26-530): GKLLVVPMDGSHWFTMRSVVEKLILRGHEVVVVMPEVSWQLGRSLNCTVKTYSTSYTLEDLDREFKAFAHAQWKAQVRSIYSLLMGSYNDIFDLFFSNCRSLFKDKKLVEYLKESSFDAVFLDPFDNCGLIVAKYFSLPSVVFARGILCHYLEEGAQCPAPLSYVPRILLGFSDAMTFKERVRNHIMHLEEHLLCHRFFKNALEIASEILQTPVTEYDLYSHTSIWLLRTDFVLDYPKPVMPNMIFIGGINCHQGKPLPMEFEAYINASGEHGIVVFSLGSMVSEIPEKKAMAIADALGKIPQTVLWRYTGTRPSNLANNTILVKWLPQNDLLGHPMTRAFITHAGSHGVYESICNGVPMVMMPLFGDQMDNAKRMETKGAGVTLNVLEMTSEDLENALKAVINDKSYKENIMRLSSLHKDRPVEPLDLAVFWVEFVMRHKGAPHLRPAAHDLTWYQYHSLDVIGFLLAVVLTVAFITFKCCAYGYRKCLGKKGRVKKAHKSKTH
The settings on record: pH 7.4.

Data set [3] concerns the target T3, UGT1A6 (Homo sapiens, UniProt P19224).
T3 sequence (P19224 27-532): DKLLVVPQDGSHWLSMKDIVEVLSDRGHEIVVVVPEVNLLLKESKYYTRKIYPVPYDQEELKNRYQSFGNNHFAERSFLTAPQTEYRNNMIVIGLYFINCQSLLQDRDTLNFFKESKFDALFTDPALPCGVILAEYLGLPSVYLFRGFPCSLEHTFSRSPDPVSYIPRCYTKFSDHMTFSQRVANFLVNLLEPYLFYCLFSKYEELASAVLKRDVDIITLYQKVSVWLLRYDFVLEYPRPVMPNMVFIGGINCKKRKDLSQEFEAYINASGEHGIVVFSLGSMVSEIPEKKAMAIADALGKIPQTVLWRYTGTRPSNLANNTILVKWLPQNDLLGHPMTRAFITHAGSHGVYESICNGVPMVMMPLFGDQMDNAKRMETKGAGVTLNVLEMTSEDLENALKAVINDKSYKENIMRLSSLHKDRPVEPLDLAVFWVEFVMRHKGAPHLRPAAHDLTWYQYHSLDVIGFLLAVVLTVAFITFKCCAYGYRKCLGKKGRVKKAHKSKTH
To be noted: 10 μM, pH 7.4.

In data set [4] the target is T1, UGT1A7. To be noted: 10 μM, pH 7.4.
The target of data set [5] is T4, UGT1A1 (Homo sapiens, UniProt P22309).
T4 sequence (P22309 26-533): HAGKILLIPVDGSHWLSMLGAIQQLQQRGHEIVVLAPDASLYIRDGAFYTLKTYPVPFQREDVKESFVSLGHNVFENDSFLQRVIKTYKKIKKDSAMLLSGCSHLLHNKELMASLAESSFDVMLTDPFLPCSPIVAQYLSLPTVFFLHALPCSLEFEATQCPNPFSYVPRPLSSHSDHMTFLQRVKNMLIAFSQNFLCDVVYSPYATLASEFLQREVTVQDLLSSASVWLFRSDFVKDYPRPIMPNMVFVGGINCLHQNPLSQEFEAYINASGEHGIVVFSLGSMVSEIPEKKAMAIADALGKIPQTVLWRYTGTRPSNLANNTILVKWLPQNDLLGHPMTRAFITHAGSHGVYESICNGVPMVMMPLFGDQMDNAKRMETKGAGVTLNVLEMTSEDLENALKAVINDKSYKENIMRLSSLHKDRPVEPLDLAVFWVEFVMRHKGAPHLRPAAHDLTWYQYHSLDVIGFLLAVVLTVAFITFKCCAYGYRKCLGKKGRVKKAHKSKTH
The settings on record: 10 μM, pH 7.4.

Data set [6] addresses T5, UGT2B7 (Homo sapiens, UniProt P16662).
T5 sequence (P16662 24-529): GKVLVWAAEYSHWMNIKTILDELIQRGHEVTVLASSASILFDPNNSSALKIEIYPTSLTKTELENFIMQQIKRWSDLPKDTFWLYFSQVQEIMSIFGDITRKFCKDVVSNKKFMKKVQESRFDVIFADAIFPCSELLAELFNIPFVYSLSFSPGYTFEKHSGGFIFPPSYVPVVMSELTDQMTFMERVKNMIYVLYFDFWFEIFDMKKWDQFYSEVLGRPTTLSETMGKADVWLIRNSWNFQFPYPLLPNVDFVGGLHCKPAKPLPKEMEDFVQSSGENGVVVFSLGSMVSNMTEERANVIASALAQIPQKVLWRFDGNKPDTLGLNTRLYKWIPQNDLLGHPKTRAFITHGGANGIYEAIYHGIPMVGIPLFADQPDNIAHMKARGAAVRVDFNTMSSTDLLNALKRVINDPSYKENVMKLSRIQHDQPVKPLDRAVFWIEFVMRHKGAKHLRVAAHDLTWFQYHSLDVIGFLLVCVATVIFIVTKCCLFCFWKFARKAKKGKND
The settings on record: 10 μM, pH 7.4.

For the molecule `O=c1c(O)c(-c2ccc(O)cc2)oc2cc(O)cc(O)c12` [5,7,4'THFnol, 3,5,7,4’-tetrahydroxyflavone], in data set [1], the Hydroxyl positions glucuronidated entry was “glucuronidated 3-O, 7-O and 4’-O”.

For `O=c1cc(-c2ccccc2)oc2cc(O)cc(O)c12` [5,7DHF, 5,7-dihydroxyflavone], the “Degree of regiospecificity (major glucuronide in bracket)” value in data set [2] (2.5 μM) is reported as “Dominant (7-O)”. Further, the Hydroxyl positions glucuronidated entry was “glucuronidated 7-O position only” in data set [2] (10 μM); “glucuronidated both 7-O and 5-O positions” in data set [3]; “glucuronidated 7-O position only” in data set [4]; “glucuronidated 7-O position only” in data set [5]; “glucuronidated both 7-O and 5-O positions” in data set [6].
